{
  "source": "paper PMC7738869",
  "about": "“A novel STAT3 inhibitor W2014-S regresses human non-small cell lung cancer xenografts and sensitizes EGFR-TKI acquired resistance” (Theranostics, 2021)",
  "key": {"[1]": {"molecular_target": "full-length wild-type STAT3 (Homo sapiens, UniProt P40763)", "sequence (P40763 whole entry)": "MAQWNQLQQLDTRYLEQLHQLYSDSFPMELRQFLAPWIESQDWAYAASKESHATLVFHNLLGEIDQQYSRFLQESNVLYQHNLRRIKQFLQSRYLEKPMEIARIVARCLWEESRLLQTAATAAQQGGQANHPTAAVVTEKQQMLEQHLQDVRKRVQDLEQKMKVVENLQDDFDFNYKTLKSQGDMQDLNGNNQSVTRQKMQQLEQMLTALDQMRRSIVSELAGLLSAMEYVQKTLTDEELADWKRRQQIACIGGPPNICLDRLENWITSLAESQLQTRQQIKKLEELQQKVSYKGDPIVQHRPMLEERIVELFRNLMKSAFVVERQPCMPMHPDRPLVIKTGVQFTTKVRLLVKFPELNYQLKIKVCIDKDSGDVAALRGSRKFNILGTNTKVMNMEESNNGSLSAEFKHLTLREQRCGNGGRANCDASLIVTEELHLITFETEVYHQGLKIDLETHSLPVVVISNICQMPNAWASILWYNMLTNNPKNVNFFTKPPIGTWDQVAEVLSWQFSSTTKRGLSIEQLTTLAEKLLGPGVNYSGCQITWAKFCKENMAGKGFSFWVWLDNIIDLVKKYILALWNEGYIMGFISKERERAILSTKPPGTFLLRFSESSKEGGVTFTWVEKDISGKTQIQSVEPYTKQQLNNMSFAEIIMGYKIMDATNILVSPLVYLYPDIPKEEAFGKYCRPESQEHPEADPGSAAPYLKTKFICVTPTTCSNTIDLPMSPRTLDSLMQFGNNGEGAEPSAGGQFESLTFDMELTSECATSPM", "experiment": "Surface plasmon resonance analysis of binding to STAT3", "conditions": "SPR", "method": "Biacore 8K and Biacore Insight Evaluation software were used to analyze the interaction between the agents and the protein full-length wild-type STAT3 to detect the binding affinity. Purified STAT3 (100 μg/mL) without Tris and glycerin was injected onto the CM5 Chip (GE, USA) for immobilization. Several concentrations of W2014-S or W2014-R dissolved in running buffer (1×PBS with filtration, 0.01% DMSO) were flown over the chip to produce response signals. The kinetics and affinities were calculated by the Biacore Insight Evolution software, and the results were determined as the binding affinity (KD)."}, "PC-9 cells": {"test_system": "PC-9 cells", "experiment": "Cell viability assay (CCK-8), PC-9", "assay_type": "cell-based", "conditions": "Homo sapiens, PC-9, 72 h, read-out: IC50 cell proliferation", "method": "Cell proliferation was measured using the Cell Counting Kit-8 (CCK-8, B34304, Bimake, USA). A549 (2 × 10^3/100 μL/well), PC-9 (3 × 10^3/100 μL/well) or PC-9/GR cells (3 × 10^3/100 μL/well) were plated into each well of 96-well plates (Costar, USA). […] Then, 10 μL of CCK-8 was added to each well, and cells were incubated for 1-4 h until the color of untreated controls turned to orange. The absorbance (A) was measured by a microplate reader (FLUOstar Omega-ACU, USA) at test and reference wavelengths of 450 nm. The percentage of growth was calculated as Cell viability (%) = [A (Compound +) - A (Blank) ] / [A (Compound -) - A (Blank) ] × 100%. Cell viability meant proliferation of cells. Each experiment was done at least in triplicate, and thrice independently."}, "PC-9/GR cells": {"test_system": "PC-9/GR cells", "experiment": "Cell apoptosis assay (Annexin V-FITC/PI flow cytometry), PC-9/GR", "assay_type": "cell-based, human", "conditions": "72 h", "method": "Briefly, aliquots of 2 × 10^5 cells were seeded into 6-well plates and incubated for 24 h at 37 °C. […] After trypsinization and gently washing cells once with medium, the cells were washed twice with cold PBS. The precipitation was resuspended by 400 μL of 1 × binding buffer, and then resuspended cells were transferred into new 1.5 mL EP tubes. Then 3 μL of Annexin V-FITC and 5 μL of propidium iodide were added to the resuspended cells with further incubation at room temperature for 15 min in the dark. The analysis was done on Guava easyCyte (USA) and FlowJo 7.6 software."}, "AKT": {"test_system": "AKT", "experiment": "Western blot of phosphorylated and total AKT in A549 and PC-9 cells", "assay_type": "cell-based, human", "conditions": "A549 and PC-9, 0-3 μM, 24 h", "method": "(§1) Cells or tumor tissue were lysed with RIPA buffer (Beyotime, Shanghai, China) supplemented with protease inhibitors (Beyotime, Shanghai, China) and phosphatase inhibitors (Bimake, USA). Lysates were denatured by heating for 5 min at 99 °C and loaded on 4-10% SDS-polyacrylamide gel electrophoresis. Then the proteins were transferred to polyvinylidene fluoride (PVDF) membranes (Millipore, USA). The membranes were blocked and probed with primary antibodies and secondary HPR-conjugated antibodies. At last the membranes were detected by chemiluminescence (Tanon, Shanghai, China). For co-immunoprecipitation experiments, 293T cells were plated and grew to about 80% confluency, then co-transfected with plasmids of HA-STAT3 and Flag-STAT3 using Lipofectamine 2000. After 24 h, cells were treated with different concentrations of W2014-S for following 24 h, and stimulated with IL-6 (100 ng/mL) for 1 h. Cells were lysed with IP RIPA buffer (Beyotime, Shanghai, China) supplemented with protease inhibitors (Beyotime, Shanghai, China) and phosphatase inhibitors (Bimake, America), and lysates were cultured with Anti-flag Affinity Gel (B23102, Bimake, USA) overnight at 4 ℃. The gel was washed by PBST for three times and added 1×loading buffer and denatured by heating for 5 min at 99 ℃. Then the proteins were resolved on SDS-PAGE, transferred to PVDF membranes and analysed with immunoblotting."}, "pY705-STAT3": {"test_system": "pY705-STAT3", "experiment": "Immunofluorescence of nuclear pY705-STAT3 in A549 cells", "assay_type": "cell-based, human", "conditions": "A549, 3 h treatment", "method": "A549 cells were cultured into confocal dishes (Costar, USA). After 24 h, W2014-S was added into dishes. After another 3 h, cells were fixed with 4% paraformaldehyde in PBS for 10 min at room temperature. Then cells were permeabilized with 0.3% Trition X-100 for 5 min at room temperature, following by incubating with primary antibody overnight at 4 ℃. Next, cells were incubated with Alexa-Fluor-conjugated secondary antibodies for 1 h in the dark. The cells were subsequently stained with DAPI (40728ES50, Yeasen, Shanghai, China). Images were captured by Laser Scanning Confocal Microscope FV3000 (Olympus, Japan). Z-stacks were collected with a spacing of 1 μm. Antibody and dilutions used in the studies were: pY705-STAT3 (9145S, Cell Signaling Technology, 1:100), Alexa Fluor 488 Conjugate (1:5000, #4412, Cell signaling Technology, USA). The fluorescence intensity profile along the Z-axis from confocal Z-stacks was shown. The fluorescence intensity of nuclear-localized p-STAT3 was quantified using the confocal software to define the area of the selected region of interest based on the nuclear DAPI signal. Each experiment was done in at least 3 independent experiments."}, "STAT3": {"test_system": "STAT3", "experiment": "STAT3-dependent dual-luciferase reporter assay in 293T cells", "assay_type": "cell-based, human", "conditions": "293T, 0, 0.3, 1 μM, 24 h", "method": "The STAT3-dependent luciferase reporter, pGL3-STAT3, contained seven copies of the STAT3-specific binding sequence ([…]) in the C-reactive protein gene promoter, and drove firefly luciferase expression. The new construct was confirmed by sequencing. For luciferase studies, 293T cells or A549 cells in 96-well plates were transiently co-transfected with the appropriate plasmids (10 ng TKRL as internal control vector for normalizing and 50 ng of pGL3-STAT3) using Lipofectamine 2000 (11668500, Invitrogen, Carlsbad, CA, USA) which was following the manufacturer's protocol. After 24 h, HEK-293T cells were treated with 0-1 μM W2014-S for 24 h, and stimulated with IL-6 (100 ng/mL, PeproTech) for 1 h or EGF (50 ng/mL, PeproTech) for 30 min. Subsequently, cytosolic extracts were prepared for dual-luciferase reporter assay."}, "[2]": {"test_system": "pY705-STAT3 and pY1068-EGFR", "experiment": "Western blot of pY705-STAT3 and pY1068-EGFR in PC-9/GR cells", "assay_type": "cell-based, human", "conditions": "W2014-S 1 μM and/or gefitinib 2 μM, 24 h", "procedure": "Cells or tumor tissue were lysed with RIPA buffer (Beyotime, Shanghai, China) supplemented with protease inhibitors (Beyotime, Shanghai, China) and phosphatase inhibitors (Bimake, USA). Lysates were denatured by heating for 5 min at 99 °C and loaded on 4-10% SDS-polyacrylamide gel electrophoresis. Then the proteins were transferred to polyvinylidene fluoride (PVDF) membranes (Millipore, USA). The membranes were blocked and probed with primary antibodies and secondary HPR-conjugated antibodies. At last the membranes were detected by chemiluminescence (Tanon, Shanghai, China). […] Cells were lysed with IP RIPA buffer (Beyotime, Shanghai, China) supplemented with protease inhibitors (Beyotime, Shanghai, China) and phosphatase inhibitors (Bimake, America), and lysates were cultured with Anti-flag Affinity Gel (B23102, Bimake, USA) overnight at 4 ℃. The gel was washed by PBST for three times and added 1×loading buffer and denatured by heating for 5 min at 99 ℃. Then the proteins were resolved on SDS-PAGE, transferred to PVDF membranes and analysed with immunoblotting."}, "A549 cells": {"test_system": "A549 cells", "experiment": "Transwell cell invasion assay, A549", "conditions": "A549, 1 μM", "procedure": "Transwell invasion assays were performed as previously reported [37] using Transwell chamber (Costar, USA). […] Data from triplicates experiments were pooled and plotted as shown."}, "STAT3-STAT3 dimerization": {"molecular_target": "STAT3-STAT3 dimerization (Homo sapiens, UniProt P40763)", "sequence (P40763 whole entry)": "as above", "experiment": "Co-immunoprecipitation of HA-STAT3 and Flag-STAT3 in A549 cells", "assay_type": "cell-based", "design": "expressed in transfected cells; host or cells: A549", "conditions": "A549, 0, 0.3, 1 μM, 24 h", "method": "as §1"}, "[3]": {"conditions": "gefitinib 2 μM and/or W2014-S 1 μM"}},
  "data": [
    {"smiles": "C[C@H](Oc1ccc(-c2nc3nc(C4=CCN(C(=O)OC(C)(C)C)CC4)ccc3[nH]2)cc1)c1ccccc1", "note": "[W2014-S]", "values": [
      {"measurement": "Kd", "setting": "[1]", "value": 3.64, "unit": "µM"},
      {"measurement": "IC50", "setting": "PC-9 cells", "value": 2.36, "unit": "µM"},
      {"measurement": "effect on gefitinib-induced apoptosis", "setting": "PC-9/GR cells; W2014-S 1 μM + gefitinib 2 μM", "value": "significantly enhanced gefitinib-induced apoptosis"},
      {"measurement": "Q1", "setting": "PC-9/GR cells; [3]", "value": 0.164, "unit": "%"},
      {"measurement": "Q2", "setting": "PC-9/GR cells; [3]", "value": 4.50, "unit": "%"},
      {"measurement": "Q3", "setting": "PC-9/GR cells; [3]", "value": 3.47, "unit": "%"},
      {"measurement": "Q4", "setting": "PC-9/GR cells; [3]", "value": 91.9, "unit": "%"},
      {"measurement": "phosphorylation of AKT and total AKT", "setting": "AKT", "value": "not affected"},
      {"measurement": "accumulation of pY705-STAT3 in the nucleus", "setting": "pY705-STAT3", "value": "decreased"},
      {"measurement": "STAT3-dependent luciferase reporter activity induced by IL-6", "setting": "STAT3", "value": "dose-dependently inhibited"},
      {"measurement": "level of pY705-STAT3 and pY1068-EGFR", "setting": "[2]", "value": "reduced the phosphorylation of STAT3"},
      {"measurement": "cell invasion", "setting": "A549 cells", "value": "suppressed"},
      {"measurement": "dimerization of HA-STAT3 and Flag-STAT3", "setting": "STAT3-STAT3 dimerization", "value": "inhibited by W2014-S in a dosage-dependent manner"}
    ]}
  ]
}
